Paper PMC4013293 (Bioorganic & medicinal chemistry, 2013)

Assays:
human ERα = target: T1, human ERα (Homo sapiens, UniProt P03372); test: Fluorescence polarization displacement assay with FITC-estradiol; format: binding; conditions: fluorescence polarization screen of twelve compounds
T1 sequence (P03372 1-595): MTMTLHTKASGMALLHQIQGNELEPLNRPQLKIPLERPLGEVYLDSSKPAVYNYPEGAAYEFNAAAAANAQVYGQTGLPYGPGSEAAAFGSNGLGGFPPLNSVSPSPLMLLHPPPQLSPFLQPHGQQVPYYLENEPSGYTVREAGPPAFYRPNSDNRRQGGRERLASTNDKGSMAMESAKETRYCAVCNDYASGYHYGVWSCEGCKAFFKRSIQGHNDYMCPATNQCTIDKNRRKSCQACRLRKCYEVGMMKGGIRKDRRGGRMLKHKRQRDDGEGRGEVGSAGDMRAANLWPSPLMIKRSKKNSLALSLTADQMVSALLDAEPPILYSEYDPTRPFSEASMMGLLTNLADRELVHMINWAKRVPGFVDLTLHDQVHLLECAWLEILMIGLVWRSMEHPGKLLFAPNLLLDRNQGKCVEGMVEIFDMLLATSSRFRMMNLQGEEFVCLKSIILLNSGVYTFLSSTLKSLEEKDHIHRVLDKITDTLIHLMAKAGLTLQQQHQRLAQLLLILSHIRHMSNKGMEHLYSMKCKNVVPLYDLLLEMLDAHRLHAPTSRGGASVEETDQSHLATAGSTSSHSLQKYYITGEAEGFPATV

ERβ = ERβ (Homo sapiens, UniProt Q92731); test: Cell-based ERβ luciferase reporter luminescence assay, agonist mode; conditions: read-out: ERβ agonist IC50; luciferase reporter cells, 22 h, duplicate
Sequence of ERβ (Q92731 whole entry): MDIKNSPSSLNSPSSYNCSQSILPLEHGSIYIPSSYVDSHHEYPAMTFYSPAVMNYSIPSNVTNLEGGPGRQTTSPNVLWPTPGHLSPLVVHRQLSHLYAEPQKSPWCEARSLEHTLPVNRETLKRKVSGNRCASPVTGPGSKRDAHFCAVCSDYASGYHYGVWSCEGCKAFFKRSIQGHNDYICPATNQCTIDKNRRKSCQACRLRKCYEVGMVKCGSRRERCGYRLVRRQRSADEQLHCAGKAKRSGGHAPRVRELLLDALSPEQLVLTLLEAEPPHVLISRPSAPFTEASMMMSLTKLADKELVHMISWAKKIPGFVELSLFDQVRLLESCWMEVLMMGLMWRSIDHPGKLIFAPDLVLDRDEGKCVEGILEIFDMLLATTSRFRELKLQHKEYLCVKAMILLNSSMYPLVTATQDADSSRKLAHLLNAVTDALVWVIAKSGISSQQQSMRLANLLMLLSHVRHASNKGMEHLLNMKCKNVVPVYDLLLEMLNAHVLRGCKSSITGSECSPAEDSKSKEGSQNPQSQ

Compound | Affinity for ERα at concentrations as high as 1 μM (in words) (human ERα) | IC50 (ERβ)
CC[C@H](C)C1=CC[C@H]2[C@@H]3CCc4cc(O)ccc4[C@H]3CC[C@]12C [Compound 7, (20S) 3-Hydroxy-19,24-dinorchola-1,3,5(10),16-tetraene] | significant affinity | –
CC1C[C@H](C)C2(CC[C@H]3[C@@H]4CCc5cc(O)ccc5[C@H]4CC[C@@]32C)O1 (stereo partly drawn) [Compound 13, 17,23-Epoxy-3-hydroxy-19-norchola-1,3,5(10)-triene] | significant affinity | –
OC[C@H]1CCC[C@@H](c2ccc(O)cc2)CC1 (relative stereo) [Compound 18, cis-1-Hydroxymethyl-4-(4′-hydroxyphenyl)-cycloheptane] | significant affinity | 5.4 ± 0.3 nM
C[C@@H](CCO)C1=CC[C@H]2[C@@H]3CCc4cc(O)ccc4[C@H]3CC[C@]12C [Compound 11, (20S) 3-Hydroxy-19,24-Dinorchola-1,3,5(10),16-tetraen-23-ol] | significant affinity | –
CCCOC(=O)C1CC[C@H]2[C@@H]3CCc4cc(O)ccc4[C@H]3CC[C@]12C (stereo partly drawn) [Compound 4, n-Propyl 3-hydroxyestra-1,3,5(10)-triene-17-carboxylate] | significant affinity | –
